Assay results published in US20110112056A1, “Use of Carbon-2-Modified-Vitamin D Analogs to Induce the Formation of New Bone” (WISCONSIN ALUMNI RESEARCH FOUNDATION, priority 2002, published 2011).
Entries after “also recorded” stand apart in the source; their conditions may differ. Read-outs that look alike come from different tables or passages of the source.

Experiments:
[1] = system: human osteoblast cultures; test: Bone nodule formation in vitro in human osteoblast cultures (Von Kossa stain); type: cell-based; details: for formation of mineralized bone by osteoblast cultures (Von Kossa stain, FIG. 2): different concentrations (10^−8 to 10^−12 molar)
Description: Human bone samples discarded after surgical procedures from patients undergoing hip/knee replacement surgeries are obtained under an approved IRB protocol (Protocol #2001-055) and processed as described below. These bone pieces are otherwise routinely discarded as waste material during surgery.
The bone pieces are thoroughly washed and cleaned under sterile conditions using phosphate-buffered saline (PBS). These pieces are then cut to obtain smaller pieces (1-2 mm^3) and subjected to enzymatic digestion process to isolate osteoblasts as described below.
Osteoblastic cells are obtained from the bone pieces by collagenase digestion. Briefly, the bone samples are washed twice in PBS and dissected in about 1 mm^3 size fragments which are then sequentially digested in trypsin (1 mg/mL) for ten minutes, followed by dispase (2 mg/mL) for twenty minutes, and bacterial collagenase [Collagenase A] (3 mg/mL) twice for thirty minutes in PBS at 37° C. in a water bath. Cells released by collagenase digestion are then washed, counted and grown to sub-confluence in 25 cm^2 cell culture flasks in 1:1 Ham's F12/Dulbecco's modification of Eagle's medium (DMEM) supplemented with 10% fetal bovine serum. Cells are cultured at 37° C. in a humidified atmosphere of 5% CO2/95% air. Medium changes are made every 2-3 days and cells are cultured until they are 80% confluent. Cells are then trypsinized, washed and frozen from early passages for evaluation using techniques as described below.
In order to evaluate the ability of osteoblasts to form bone nodules in vitro, cells are cultured in 6 well plates at 1-3×10^5 cells/well. Cells are cultured in the presence of either 1,25-(OH)2D3 or vitamin D analogs at various doses for 7 days. Complete medium changes are carried out twice during the 7-day period and the medium is supplemented with fresh compounds (either 1,25-(OH)2D3 or 2-methylene-19-nor-(20S)-1α,25-dihydroxyvitamin D3—2MD) during each medium change. At days 10 and 13, complete medium changes are carried out and the compounds are replaced by treatment with ascorbic acid (50 μg/ml) and β-glycerol phosphate (10 mM). A third dose of ascorbic acid and β-glycerol phosphate is added to the cultures on day 15 if needed. Following the culture period, cells are stained using the Von Kossa technique. Briefly, cells are stained with 5% silver nitrate for 30 minutes in the dark, rinsed with distilled water, reduced with sodium carbonate/formaldehyde solution for 2 minutes and washed under tap water for 10 minutes. The cells are then stained with methyl green pyronin for 20 minutes, washed with water followed by two washes of absolute alcohol. […] Bone nodule formation in vitro can be assessed quantitatively by various published procedures.

post-menopausal women = details: cited from earlier work
ovariectomized rats = details: cited from earlier work; for bone mass: ovariectomized animal; for bone strength: ovariectomized rats

Structure (SMILES) | change in osteoblast cultures (photographs, FIG. 1) ([1]; 10^−8 molar, after 14 days of incubation) | formation of mineralized bone by osteoblast cultures (Von Kossa stain, FIG. 2) [1] | bone mass (post-menopausal women) | fracture rate (post-menopausal women) | degree of new bone formation ([1]; 10^−12 molar) | bone mass (ovariectomized rats) | bone mass (ovariectomized rats; listed as 2-methylene-19-nor-20S-1,25-(OH)2D3) | bone strength (ovariectomized rats)
C=C1/C(=C\C=C2/CCC[C@]3(C)[C@@H]([C@H](C)CCCC(C)(C)O)CC[C@@H]23)C[C@@H](O)C[C@@H]1O [1,25-(OH)2D3, 1α,25-dihydroxyvitamin D3] | very little change | does not produce this effect; also recorded: minimum effect | will not appreciably increase the bone mass | will decrease the fracture rate |  |  |  | 
C=C1[C@H](O)CC(=C/C=C2\CCC[C@]3(C)[C@@H]([C@@H](C)CCCC(C)(C)O)CC[C@@H]23)C[C@H]1O [2MD, 2-methylene-19-nor-(20S)-1α,25-dihydroxyvitamin D3] |  | unique and strong action |  |  | saturating degree of new bone formation | markedly stimulate bone mass accumulation | increase bone mass | increase bone strength
CC1C(O)CC(=CC=C2CCC[C@]3(C)[C@@H]([C@@H](C)CCCC(C)(C)O)CC[C@@H]23)CC1O (stereo partly drawn) [2α-methyl-19-nor-20S-1,25-(OH)2D3, 2α-methyl-19-nor-20(S)-1α,25-dihydroxyvitamin D3] |  |  |  |  |  | increase bone mass |  | increase bone strength
